Test: Single-dose mean plasma concentration profile of […] XR 20 mg (FIG. 1)
Assay type: in vivo
Settings: human, oral, […] XR 20 mg single dose, mean over about 20 patients
Experimental: See, e.g., Fundamentals of Clinical Pharmacokinetics. J. G. Wagner, Drug Intelligence Publications, Inc., Hamilton, Ill., 1975; Guidance for Industry, Bioavailability and Bioequivalence Studies for Orally Administered Drug Products-General Considerations, FDA, CDER. October 2000.
Individual patients were treated with […] XR®, 20 mg. Subjects received either one single dose administered with food or one single dose administered following a 10-hour overnight fast through continued fast 3.5 hours post dosing. The mean plasma concentration profile of FIG. 1 was obtained from averaging such individuals' curves.

SMILES: C[C@H](N)Cc1ccccc1 [d-amphetamine]
- Cmax: 28 ng/mL
- Tmax: 7.1 h
- AUC (read-out: AUC (time zero to infinity)): 557 ng·h/mL

— US6913768B2, “Sustained release delivery of amphetamine salts” (Shire Laboratories, Inc., priority 2002, dated 2005)
